Source: PubChem BioAssay AID258 (DTP/NCI, 2004)
Values joined by “and” are separate entries in the source; they are usually repeats but may differ in a detail not shown here. Identical values can stand only once. Toxic doses and inconclusive results are not listed.

Tested on: CD2F1 mice, L1210 leukemia sc, survival T/C
Test: NCI In Vivo Anticancer Drug Screen. Data for tumor model L1210 Leukemia (subcutaneous) in CD2F1 (CDF1) mice
Conditions: higher = longer survival
Procedure, shortened: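 T/C ratio: treated-group survival or tumor size over vehicle-control group measurement, in mice carrying transplanted tumors.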

[1] = endpoint: median survival time, dose: 4.0 mg/kg/injection, schedule: Q01DX009 (ip), vehicle: saline
[2] = endpoint: median survival time, dose: 5.0 mg/kg/injection, schedule: Q01DX009 (sc), vehicle: saline
[3] = endpoint: median survival time, dose: 2.0 mg/kg/injection, schedule: Q01DX009 (sc), vehicle: saline
[4] = endpoint: median survival time, dose: 8.4 mg/kg/injection, schedule: Q01DX Z (sc), vehicle: water
[5] = endpoint: median survival time, dose: 14.0 mg/kg/injection, schedule: Q01DX Z (sc), vehicle: water
[6] = endpoint: median survival time, dose: 23.0 mg/kg/injection, schedule: Q01DX Z (sc), vehicle: water
[7] = endpoint: median survival time, dose: 39.0 mg/kg/injection, schedule: Q01DX Z (sc), vehicle: water

SMILES: N[C@@H](Cc1ccc(N(CCCl)CCCl)cc1)C(=O)O
- T/C (endpoint: median survival time, dose: 0.31 mg/kg/injection, schedule: Q01DX009 (ip), vehicle: saline): 96 % of control
- T/C (endpoint: median survival time, dose: 0.31 mg/kg/injection, schedule: Q01DX009 (sc), vehicle: saline): 100 % of control
- T/C (endpoint: median survival time, dose: 0.62 mg/kg/injection, schedule: Q01DX009 (ip), vehicle: saline): 104 % of control
- T/C (endpoint: median survival time, dose: 0.62 mg/kg/injection, schedule: Q01DX009 (sc), vehicle: saline): 104 % of control
- T/C (endpoint: median survival time, dose: 0.63 mg/kg/injection, schedule: Q01DX009 (ip), vehicle: saline): 99 % of control
- T/C (endpoint: median survival time, dose: 1.0 mg/kg/injection, schedule: Q01DX009 (ip), vehicle: suspension in saline): 121 % of control
- T/C (endpoint: median survival time, dose: 1.0 mg/kg/injection, schedule: Q01DX009 (sc), vehicle: saline with Tween-80): 105 % of control and 108 % of control
- T/C (endpoint: median survival time, dose: 1.25 mg/kg/injection, schedule: Q01DX009 (ip), vehicle: saline): 112 % of control and 113 % of control and 121 % of control
- T/C (endpoint: median survival time, dose: 1.25 mg/kg/injection, schedule: Q01DX009 (sc), vehicle: saline): 115 % of control and 121 % of control
- T/C (endpoint: median survival time, dose: 2.0 mg/kg/injection, schedule: Q01DX009 (sc), vehicle: saline with Tween-80): 110 % of control and 124 % of control
- T/C (endpoint: median survival time, dose: 2.5 mg/kg/injection, schedule: Q01DX009 (ip), vehicle: saline): 124 % of control
- T/C (endpoint: median survival time, dose: 3.0 mg/kg/injection, schedule: Q01DX009 (ip), vehicle: saline): 153 % of control
- T/C (endpoint: median survival time, dose: 3.5 mg/kg/injection, schedule: Q01DX009 (ip), vehicle: saline): 168 % of control
- T/C [1]: 173 % of control
- T/C (endpoint: median survival time, dose: 4.0 mg/kg/injection, schedule: Q01DX009 (ip), vehicle: suspension in saline): 169 % of control
- T/C (endpoint: median survival time, dose: 4.0 mg/kg/injection, schedule: Q01DX009 (sc), vehicle: saline with Tween-80): 163 % of control
- T/C (endpoint: median survival time, dose: 4.5 mg/kg/injection, schedule: Q01DX009 (ip), vehicle: saline): 169 % of control
- T/C [2]: 153 % of control and 156 % of control
- T/C (endpoint: median survival time, dose: 5.3 mg/kg/injection, schedule: Q01DX009 (sc), vehicle: saline): 161 % of control
- T/C (endpoint: median survival time, dose: 7.5 mg/kg/injection, schedule: Q01DX009 (sc), vehicle: saline): 104 % of control
- T/C (endpoint: median survival time, dose: 8.0 mg/kg/injection, schedule: Q01DX009 (ip), vehicle: suspension in saline): 88 % of control
- T/C (endpoint: median survival time, dose: 8.0 mg/kg/injection, schedule: Q01DX009 (sc), vehicle: saline with Tween-80): 168 % of control
- T/C (endpoint: median survival time, dose: 10.0 mg/kg/injection, schedule: Q01DX009 (sc), vehicle: saline): 98 % of control
- T/C (endpoint: median survival time, dose: 16.0 mg/kg/injection, schedule: Q01DX009 (sc), vehicle: saline with Tween-80): 118 % of control and 87 % of control
- T/C (endpoint: median survival time, dose: 18.0 mg/kg/injection, schedule: Q01DX009 (sc), vehicle: saline): 110 % of control
- T/C (endpoint: median survival time, dose: 32.0 mg/kg/injection, schedule: Q01DX009 (sc), vehicle: saline with Tween-80): 107 % of control
- T/C (endpoint: median survival time, dose: 64.0 mg/kg/injection, schedule: Q01DX009 (sc), vehicle: saline with Tween-80): 108 % of control

SMILES: Cc1ccc(NCCN(C)C)c2c(=O)c3cc(O)ccc3sc12
- T/C (endpoint: median survival time, dose: 12.5 mg/kg/injection, schedule: Q01DX009 (ip), vehicle: Klucel (hydroxypropylcellulose) (HPC)): 110 % of control and 112 % of control
- T/C (endpoint: median survival time, dose: 25.0 mg/kg/injection, schedule: Q01DX009 (ip), vehicle: Klucel (hydroxypropylcellulose) (HPC)): 112 % of control and 117 % of control
- T/C (endpoint: median survival time, dose: 50.0 mg/kg/injection, schedule: Q01DX009 (ip), vehicle: Klucel (hydroxypropylcellulose) (HPC)): 165 % of control

SMILES: CSCS(=O)C[C@H](CO)NC(=O)/C=C/c1c(C)[nH]c(=O)[nH]c1=O (some centres undefined)
- T/C (endpoint: median survival time, dose: 1.08 mg/kg/injection, schedule: Q01DX Z (sc), vehicle: saline): 110 % of control
- T/C (endpoint: median survival time, dose: 1.8 mg/kg/injection, schedule: Q01DX Z (sc), vehicle: saline): 110 % of control
- T/C (endpoint: median survival time, dose: 3.0 mg/kg/injection, schedule: Q01DX Z (sc), vehicle: saline): 100 % of control
- T/C (endpoint: median survival time, dose: 5.0 mg/kg/injection, schedule: Q01DX Z (sc), vehicle: saline): 90 % of control

SMILES: N[C@H](C(=O)O)[C@@H]1CC(Cl)=NO1
- T/C [3]: 116 % of control

SMILES: N=C(N)Cc1ccc(NC(=O)c2ccc(C(=O)Nc3ccc(CC(=N)N)cc3)cc2)cc1
- T/C [4]: 110 % of control
- T/C [5]: 105 % of control
- T/C [6]: 115 % of control
- T/C [7]: 110 % of control
- T/C (endpoint: median survival time, dose: 65.0 mg/kg/injection, schedule: Q01DX Z (sc), vehicle: water): 115 % of control

SMILES: O=C(O)CCCc1ccc(N(CCCl)CCCl)cc1
- T/C (endpoint: median survival time, dose: 1.5 mg/kg/injection, schedule: Q01DX009 (ip), vehicle: saline with Tween-80): 98 % of control
- T/C (endpoint: median survival time, dose: 3.0 mg/kg/injection, schedule: Q01DX009 (ip), vehicle: saline with Tween-80): 107 % of control
- T/C (endpoint: median survival time, dose: 6.0 mg/kg/injection, schedule: Q01DX009 (ip), vehicle: saline with Tween-80): 107 % of control
- T/C (endpoint: median survival time, dose: 12.0 mg/kg/injection, schedule: Q01DX009 (ip), vehicle: saline with Tween-80): 123 % of control

SMILES: Nc1nc(N)c2[nH]cnc2n1
- T/C (endpoint: median survival time, dose: 20.0 mg/kg/injection, schedule: Q01DX Z (sc), vehicle: steriod suspending solution): 106 % of control
- T/C (endpoint: median survival time, dose: 40.0 mg/kg/injection, schedule: Q01DX Z (sc), vehicle: steriod suspending solution): 100 % of control
- T/C (endpoint: median survival time, dose: 80.0 mg/kg/injection, schedule: Q01DX Z (sc), vehicle: steriod suspending solution): 100 % of control
- T/C (endpoint: median survival time, dose: 160.0 mg/kg/injection, schedule: Q01DX Z (sc), vehicle: steriod suspending solution): 100 % of control

SMILES: Nc1ccn(C2OC(COP(=O)(O)O)C(O)C2O)c(=O)n1 (centres undefined)
- T/C (endpoint: mean survival time, dose: 22.5 mg/kg/injection, schedule: Q ##X009 (ip), vehicle: saline): 181 % of control
- T/C (endpoint: mean survival time, dose: 45.0 mg/kg/injection, schedule: Q ##X009 (ip), vehicle: saline): 206 % of control
- T/C (endpoint: mean survival time, dose: 90.0 mg/kg/injection, schedule: Q ##X009 (ip), vehicle: saline): 161 % of control
- T/C (endpoint: mean survival time, dose: 180.0 mg/kg/injection, schedule: Q ##X009 (ip), vehicle: saline): 176 % of control
- T/C (endpoint: median survival time, dose: 22.5 mg/kg/injection, schedule: Q ##X009 (ip), vehicle: saline): 179 % of control
- T/C (endpoint: median survival time, dose: 22.5 mg/kg/injection, schedule: Q## X Z (ip), vehicle: saline): 188 % of control
- T/C (endpoint: median survival time, dose: 45.0 mg/kg/injection, schedule: Q ##X009 (ip), vehicle: saline): 198 % of control
- T/C (endpoint: median survival time, dose: 45.0 mg/kg/injection, schedule: Q## X Z (ip), vehicle: saline): 211 % of control
- T/C (endpoint: median survival time, dose: 90.0 mg/kg/injection, schedule: Q ##X009 (ip), vehicle: saline): 175 % of control
- T/C (endpoint: median survival time, dose: 90.0 mg/kg/injection, schedule: Q## X Z (ip), vehicle: saline): 183 % of control
- T/C (endpoint: median survival time, dose: 180.0 mg/kg/injection, schedule: Q ##X009 (ip), vehicle: saline): 169 % of control
- T/C (endpoint: median survival time, dose: 180.0 mg/kg/injection, schedule: Q## X Z (ip), vehicle: saline): 177 % of control

SMILES: COc1cccc2c1C(=O)c1c(O)c3c(c(O)c1C2=O)C[C@@](O)(C(=O)CO)C[C@@H]3OC1CC(N)C(O)C(C)O1 (some centres undefined)
- T/C (endpoint: median survival time, dose: 0.25 mg/kg/injection, schedule: Q01DX009 (ip), vehicle: saline): 101 % of control and 98 % of control
- T/C (endpoint: median survival time, dose: 0.25 mg/kg/injection, schedule: Q01DX009 (sc), vehicle: saline): 98 % of control
- T/C (endpoint: median survival time, dose: 0.5 mg/kg/injection, schedule: Q01DX009 (ip), vehicle: saline): 103 % of control and 107 % of control and 98 % of control
- T/C (endpoint: median survival time, dose: 0.5 mg/kg/injection, schedule: Q01DX009 (sc), vehicle: saline): 101 % of control
- T/C (endpoint: median survival time, dose: 1.0 mg/kg/injection, schedule: Q01DX009 (ip), vehicle: saline): 100 % of control and 106 % of control and 123 % of control
- T/C (endpoint: median survival time, dose: 1.0 mg/kg/injection, schedule: Q01DX009 (sc), vehicle: saline): 110 % of control
- T/C (endpoint: median survival time, dose: 2.0 mg/kg/injection, schedule: Q01DX009 (ip), vehicle: saline): 111 % of control and 115 % of control and 123 % of control
- T/C [3]: 117 % of control and 120 % of control
- T/C (endpoint: median survival time, dose: 2.5 mg/kg/injection, schedule: Q01DX009 (sc), vehicle: saline): 114 % of control
- T/C (endpoint: median survival time, dose: 3.0 mg/kg/injection, schedule: Q01DX009 (sc), vehicle: saline): 116 % of control
- T/C (endpoint: median survival time, dose: 3.5 mg/kg/injection, schedule: Q01DX009 (sc), vehicle: saline): 120 % of control
- T/C [1]: 110 % of control and 92 % of control and 97 % of control
- T/C [2]: 116 % of control
- T/C (endpoint: median survival time, dose: 6.0 mg/kg/injection, schedule: Q01DX009 (sc), vehicle: saline): 102 % of control
- T/C (endpoint: median survival time, dose: 8.0 mg/kg/injection, schedule: Q01DX009 (sc), vehicle: saline): 113 % of control and 89 % of control

SMILES: O=C(Nc1ccc(NC2=NCCN2)cc1)c1cccc(C(=O)Nc2ccc(NC3=NCCN3)cc2)c1
- T/C [4]: 110 % of control
- T/C [5]: 100 % of control
- T/C [6]: 105 % of control
- T/C [7]: 110 % of control
